For ten compounds, inhibition results are on record in article PMC7665585, “Antidepressive effect of an inward rectifier K^+ channel blocker peptide, tertiapin-RQ” (PLoS ONE, 2020).

The target in this assay is T1, rat ROMK (Rattus norvegicus, UniProt P35560).
T1 construct: expressed in transfected cells; host or cells: 293T cell line 208-4 (lentiviral transduction, GFP coexpressed)
T1 sequence (P35560 1-391): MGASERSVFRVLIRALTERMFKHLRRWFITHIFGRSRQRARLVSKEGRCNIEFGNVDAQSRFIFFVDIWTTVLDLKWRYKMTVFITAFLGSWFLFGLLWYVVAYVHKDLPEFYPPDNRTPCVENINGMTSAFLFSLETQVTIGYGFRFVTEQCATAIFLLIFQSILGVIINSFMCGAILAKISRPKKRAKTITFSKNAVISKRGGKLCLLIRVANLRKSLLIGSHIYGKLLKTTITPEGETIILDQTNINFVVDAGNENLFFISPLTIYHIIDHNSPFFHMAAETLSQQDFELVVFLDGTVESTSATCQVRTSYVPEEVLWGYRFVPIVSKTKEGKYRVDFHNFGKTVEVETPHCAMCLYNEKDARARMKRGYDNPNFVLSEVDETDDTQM
In words: Whole-cell patch-clamp of ROMK currents in 208–4 cells. It is filed as cell-based. Conditions: blockade at 1 μM estimated from fitted Hill curve (four parameters), whole-cell conductance, n = 3–6, read-out: Activity (ROMK channel blocking activity, percentage of blockade at 1 μM). The source says: The cDNAs for rat ROMK and mouse GIRK1, 2, and 4 were generously donated by Drs Mikio Hayashi (Kansai Medical University) and David Weaver (Vanderbilt University). The ROMK channels were stably expressed by a cell line, 208–4, which was transduced with lentiviral vectors coexpressing the channel and green fluorescent protein (GFP) as described previously. The GIRK genes, cloned in a pCMV6 plasmid (Origene Technologies Inc, Rockville, MD), were transiently expressed in 293T cells with calcium phosphate transfection. GIRK channel currents were recorded 24 h after transfection.
Cells grown on small cover glasses (3 × 18 mm) were placed in a recording chamber. Whole-cell currents were recorded in Tyrode solution using an Axopatch 200B amplifier (Axon Instruments, Foster City, CA) at 25°C. Tyrode solution contained (in mM): NaCl 140, KCl 5.4, NaH2PO4 0.33, CaCl2 2, MgCl2 1, HEPES 5, and glucose 5.5 (pH 7.4 adjusted with NaOH). High K^+ Tyrode solution (KCL 50 mM, NaCl 95 mM, and others were the same as standard Tyrode solution) was used for the recording of GIRK channels. Patch pipettes pulled from borosilicate glass (Narishige, Tokyo, Japan) were filled with an internal solution containing (in mM): K-aspartate 66, KCl 71.5, KH2PO4 1, EGTA 5, HEPES 5, and MgATP 3 (pH 7.4 adjusted with KOH). Recordings were digitized at 10 kHz, and low-pass filtered at 2 kHz. ROMK, Kir2.1, and GIRK currents were evoked with step pulses of 400 msec from -150 mV to 10 mV in 10 mV increments from a holding potential of -70 mV. Whole-cell currents were recorded 60 sec after the peptide application and those from 100 to 300 msec of the step pulses were averaged. Liquid junction potential or capacitive transient was not corrected or compensated. Whole-cell conductance was calculated as the slope of the current-voltage (I-V) relationship from -140 mV to -100 mV and normalized to the initial value (0 μM TPN), in which BaCl2-resistant current was subtracted and indicted as a percentage.

SMILES strings stand for the structures. Bridge positions count the residues as written; N and C are the ends. Peptide text beside a SMILES is read from it.

With `CC[C@H](C)[C@@H]1NC(=O)[C@H](CCCNC(=N)N)NC(=O)[C@H](CC(N)=O)NC(=O)[C@@H]2CSSC[C@@H](C(=O)NCC(=O)N[C@@H](CCCCN)C(=O)N[C@@H](CCCCN)C(N)=O)NC(=O)[C@H](CCCCN)NC(=O)[C@H](CCCCN)NC(=O)[C@H](Cc3c[nH]c4ccccc34)NC(=O)[C@H](CSSC[C@H](NC(=O)[C@H](CC(C)C)NC(=O)[C@H](C)N)C(=O)N[C@@H](CC(N)=O)C(=O)N2)NC(=O)[C@H](CCC(N)=O)NC(=O)[C@H](Cc2c[nH]cn2)NC(=O)[C@@H]2CCCN2C1=O` [Peptide 52, TPN-RQ(Δ8R/ΔI9)] (H-ALCNCNRIPHQCWKKCGKK-NH2; disulfide 3-12, 5-16), the inhibition at 1 µM was less than 20%. Next, `CC(C)C[C@H](NC(=O)[C@H](C)N)C(=O)N[C@H]1CSSC[C@@H]2NC(=O)[C@H](CCC(N)=O)NC(=O)[C@H](Cc3c[nH]cn3)NC(=O)[C@@H]3CCCN3C(=O)[C@H](CCCNC(=N)N)NC(=O)[C@H](CCCNC(=N)N)NC(=O)[C@H](CC(N)=O)NC(=O)[C@H](CSSC[C@@H](C(=O)NCC(=O)N[C@@H](CCCCN)C(=O)N[C@@H](CCCCN)C(N)=O)NC(=O)[C@H](CCCCN)NC(=O)[C@H](CCCCN)NC(=O)[C@H](Cc3c[nH]c4ccccc34)NC2=O)NC(=O)[C@H](CC(N)=O)NC1=O` [Peptide 53, TPN-RQ(ΔI9/ΔI10)] (H-ALCNCNRRPHQCWKKCGKK-NH2; disulfide 3-12, 5-16): less than 20%; `CC[C@H](C)[C@@H]1NC(=O)[C@H](CCCNC(=N)N)NC(=O)[C@H](CCCNC(=N)N)NC(=O)[C@H](CC(N)=O)NC(=O)[C@@H]2CSSC[C@@H](C(=O)NCC(=O)N[C@@H](CCCCN)C(=O)N[C@@H](CCCCN)C(N)=O)NC(=O)[C@H](CCCCN)NC(=O)[C@H](CCCCN)NC(=O)[C@H](Cc3c[nH]c4ccccc34)NC(=O)[C@H](CSSC[C@H](NC(=O)[C@H](C)NC(=O)[C@H](C)N)C(=O)N[C@@H](CC(N)=O)C(=O)N2)NC(=O)[C@H](CCC(N)=O)NC(=O)[C@H](Cc2c[nH]cn2)NC(=O)[C@@H]2CCCN2C(=O)[C@H]([C@@H](C)CC)NC1=O` [Peptide 55, TPN-RQ(L2A)] (H-AACNCNRRIIPHQCWKKCGKK-NH2; disulfide 3-14, 5-18): 60 to 80%. Next, `CC[C@H](C)[C@@H]1NC(=O)[C@H](CCCNC(=N)N)NC(=O)[C@H](CCCNC(=N)N)NC(=O)[C@H](CC(N)=O)NC(=O)[C@@H]2CSSC[C@@H](C(=O)NCC(=O)N[C@@H](CCCCN)C(=O)N[C@@H](CCCCN)C(N)=O)NC(=O)[C@H](CCCCN)NC(=O)[C@H](CCCCN)NC(=O)[C@H](Cc3c[nH]c4ccccc34)NC(=O)[C@H](CSSC[C@H](NC(=O)[C@H](CC(C)C)NC(=O)[C@H](C)N)C(=O)N[C@@H](C)C(=O)N2)NC(=O)[C@H](CCC(N)=O)NC(=O)[C@H](Cc2c[nH]cn2)NC(=O)[C@@H]2CCCN2C(=O)[C@H]([C@@H](C)CC)NC1=O` [Peptide 56, TPN-RQ(N4A)] (H-ALCACNRRIIPHQCWKKCGKK-NH2; disulfide 3-14, 5-18): 60 to 80%.

With `CC[C@H](C)[C@@H]1NC(=O)[C@H](CCCNC(=N)N)NC(=O)[C@H](CCCNC(=N)N)NC(=O)[C@H](C)NC(=O)[C@@H]2CSSC[C@@H](C(=O)NCC(=O)N[C@@H](CCCCN)C(=O)N[C@@H](CCCCN)C(N)=O)NC(=O)[C@H](CCCCN)NC(=O)[C@H](CCCCN)NC(=O)[C@H](Cc3c[nH]c4ccccc34)NC(=O)[C@H](CSSC[C@H](NC(=O)[C@H](CC(C)C)NC(=O)[C@H](C)N)C(=O)N[C@@H](CC(N)=O)C(=O)N2)NC(=O)[C@H](CCC(N)=O)NC(=O)[C@H](Cc2c[nH]cn2)NC(=O)[C@@H]2CCCN2C(=O)[C@H]([C@@H](C)CC)NC1=O` [Peptide 57, TPN-RQ(N6A)] (H-ALCNCARRIIPHQCWKKCGKK-NH2; disulfide 3-14, 5-18), the inhibition at 1 µM is 60 to 80%.

For `CC[C@H](C)[C@@H]1NC(=O)[C@H](C)NC(=O)[C@H](C)NC(=O)[C@H](CC(N)=O)NC(=O)[C@@H]2CSSC[C@@H](C(=O)NCC(=O)N[C@@H](CCCCN)C(=O)N[C@@H](CCCCN)C(N)=O)NC(=O)[C@H](CCCCN)NC(=O)[C@H](CCCCN)NC(=O)[C@H](Cc3c[nH]c4ccccc34)NC(=O)[C@H](CSSC[C@H](NC(=O)[C@H](CC(C)C)NC(=O)[C@H](C)N)C(=O)N[C@@H](CC(N)=O)C(=O)N2)NC(=O)[C@H](CCC(N)=O)NC(=O)[C@H](Cc2c[nH]cn2)NC(=O)[C@@H]2CCCN2C(=O)[C@H]([C@@H](C)CC)NC1=O` [Peptide 58, TPN-RQ(R7A/R8A)] (H-ALCNCNAAIIPHQCWKKCGKK-NH2; disulfide 3-14, 5-18), the inhibition at 1 µM is less than 20%. Consider `CC[C@H](C)[C@@H]1NC(=O)[C@H](C)NC(=O)[C@H](CCCNC(=N)N)NC(=O)[C@H](CC(N)=O)NC(=O)[C@@H]2CSSC[C@@H](C(=O)NCC(=O)N[C@@H](CCCCN)C(=O)N[C@@H](CCCCN)C(N)=O)NC(=O)[C@H](CCCCN)NC(=O)[C@H](CCCCN)NC(=O)[C@H](Cc3c[nH]c4ccccc34)NC(=O)[C@H](CSSC[C@H](NC(=O)[C@H](CC(C)C)NC(=O)[C@H](C)N)C(=O)N[C@@H](CC(N)=O)C(=O)N2)NC(=O)[C@H](CCC(N)=O)NC(=O)[C@H](Cc2c[nH]cn2)NC(=O)[C@@H]2CCCN2C(=O)[C@H]([C@@H](C)CC)NC1=O` [Peptide 59, TPN-RQ(R8A)] (H-ALCNCNRAIIPHQCWKKCGKK-NH2; disulfide 3-14, 5-18), for which the inhibition at 1 µM was 60 to 80%. For the compound `CC[C@H](C)[C@@H]1NC(=O)[C@H](C)NC(=O)[C@H](CCCNC(=N)N)NC(=O)[C@H](CCCNC(=N)N)NC(=O)[C@H](CC(N)=O)NC(=O)[C@@H]2CSSC[C@@H](C(=O)NCC(=O)N[C@@H](CCCCN)C(=O)N[C@@H](CCCCN)C(N)=O)NC(=O)[C@H](CCCCN)NC(=O)[C@H](CCCCN)NC(=O)[C@H](Cc3c[nH]c4ccccc34)NC(=O)[C@H](CSSC[C@H](NC(=O)[C@H](CC(C)C)NC(=O)[C@H](C)N)C(=O)N[C@@H](CC(N)=O)C(=O)N2)NC(=O)[C@H](CCC(N)=O)NC(=O)[C@H](Cc2c[nH]cn2)NC(=O)[C@@H]2CCCN2C1=O` [Peptide 60, TPN-RQ(I9A)] (H-ALCNCNRRAIPHQCWKKCGKK-NH2; disulfide 3-14, 5-18), the inhibition at 1 µM was 40 to 60%.

Consider `CC[C@H](C)[C@@H]1NC(=O)[C@H](CCCNC(=N)N)NC(=O)[C@H](CCCNC(=N)N)NC(=O)[C@H](CC(N)=O)NC(=O)[C@@H]2CSSC[C@@H](C(=O)NCC(=O)N[C@@H](CCCCN)C(=O)N[C@@H](CCCCN)C(N)=O)NC(=O)[C@H](CCCCN)NC(=O)[C@H](CCCCN)NC(=O)[C@H](Cc3c[nH]c4ccccc34)NC(=O)[C@H](CSSC[C@H](NC(=O)[C@H](CC(C)C)NC(=O)[C@H](C)N)C(=O)N[C@@H](CC(N)=O)C(=O)N2)NC(=O)[C@H](CCC(N)=O)NC(=O)[C@H](Cc2c[nH]cn2)NC(=O)[C@@H]2CCCN2C(=O)[C@H](C)NC1=O` [Peptide 61, TPN-RQ(I10A)] (H-ALCNCNRRIAPHQCWKKCGKK-NH2; disulfide 3-14, 5-18), for which the inhibition at 1 µM is 20 to 40%.

As for `CC[C@H](C)[C@@H]1NC(=O)[C@H](CCCNC(=N)N)NC(=O)[C@H](CCCNC(=N)N)NC(=O)[C@H](CC(N)=O)NC(=O)[C@@H]2CSSC[C@@H](C(=O)NCC(=O)N[C@@H](CCCCN)C(=O)N[C@@H](CCCCN)C(N)=O)NC(=O)[C@H](CCCCN)NC(=O)[C@H](CCCCN)NC(=O)[C@H](Cc3c[nH]c4ccccc34)NC(=O)[C@H](CSSC[C@H](NC(=O)[C@H](CC(C)C)NC(=O)[C@H](C)N)C(=O)N[C@@H](CC(N)=O)C(=O)N2)NC(=O)[C@H](CCC(N)=O)NC(=O)[C@H](Cc2c[nH]cn2)NC(=O)[C@H](C)NC(=O)[C@H]([C@@H](C)CC)NC1=O` [Peptide 62, TPN-RQ(P11A)] (H-ALCNCNRRIIAHQCWKKCGKK-NH2; disulfide 3-14, 5-18), the inhibition at 1 µM was more than 80%.
